Results reported in patent publication US9492405B2, “Use of fenoterol and fenoterol analogues in the treatment of glioblastomas and astrocytomas” (The United States of America, as represented by the …, priority 2010, dated 2016).
“And” between values parts separate entries of the source, which are not always exact repeats. Equal entries are not always repeated.

Experiments:
[1] = in vivo; conditions: rat, IV 5 mg/kg
Procedure: Dose calculations (mg/kg) were based on the individual body weight measured on the day of treatment. Study duration for pharmacokinetic studies was 6 hours. […] Urine was collected for 0-6 hours and 6 to 24 hours from 3 rats in each treatment group.
In the two-compartment model, the drug distributes into two compartments, the central compartment and the tissue, or peripheral compartment. The central compartment represents the blood, extracellular fluid, and highly perfused tissues. The drug distributes rapidly and uniformly in the central compartment. A second compartment, known as the tissue or peripheral compartment, contains tissues in which the drug equilibrates more slowly. Drug transfer between the two compartments is assumed to take place by first-order processes.
The following abbreviations are utilized in Table 4 below: alpha—macro rate constant associated with the distribution phase; beta—macro rate constant associated with the elimination phase; A, B—zero time intercept associated with the alpha phase and beta phase, respectively; AUC—area under the curve; T1/2 (K10)—half-life associated with the rate constant K10; K10—elimination rate—rate at which the drug leaves the system from the central compartment; K12—rate at which drug enters tissue compartment from the central compartment; K21—rate at which drug enters central compartment from tissue compartment; V1—volume of distribution of the central compartment; V2—volume of distribution of the tissue compartment; Vss—volume of distribution at steady state; and Cl—clearance.

[2] = system: 1321N1 xenograft; assay: 1321N1 xenograft implanted in the flank of SKID mice; format: in vivo; conditions: IP twice a day; day 3-10 30 mg/kg/day, day 10-42 50 mg/kg/day
[3] = Brain-to-plasma distribution of [3H]-(R,R)-methoxyfenoterol after single IV dose; format: in vivo; conditions: rat, IV
Procedure: An overview of the research study design for evaluating the brain-to-plasma distribution of [^3H]
(specific activity 57 Ci/mmol); vehicle was sterile saline, 0.9% sodium chloride, USP. Dose formulations were prepared on the day of the study. The amount of radioactivity in the dose formulation was determined by liquid scintillation. The study lasted for an hour and radioactivity levels in plasma and brain tissue were evaluated at the conclusion of the study. Approximately 5 mls of whole blood was collected. Blood samples were collected via cardiac puncture, transferred into a tube containing K3EDTA as the anticoagulant and kept on wet ice until processed to plasma. To generate plasma, samples were centrifuged within 15 minutes of collection at 2,500 RPM for 15 minutes at room temperature. Plasma was divided equally into three labeled cryovials and stored on ample dry ice until transferred to a freezer set at ≦−20° C. for storage until analysis. Duplicate aliquots were weighed and then combined with scintillation cocktail. The [^3H] radioactivity was determined on a liquid scintillation counter. Brain samples were snap frozen in liquid nitrogen and stored at ≦−70° C. until analysis. Whole brain tissue was homogenized and the weight of the homogenate was determined. Duplicate aliquots from the homogenate were weighed, solubilized and then combined with scintillation cocktail. The [^3H] radioactivity was determined on a liquid scintillation counter.

[4] = target: β2-AR (Homo sapiens (Human), UniProt P07550); conditions: 1321N1; basal below 0.5 nmol/mg protein
[5] = system: 1321N1 cells; assay: Cell cycle distribution by flow cytometry in 1321N1 cells; conditions: 1321N1 cells

β2-AR, sequence (P07550 whole entry): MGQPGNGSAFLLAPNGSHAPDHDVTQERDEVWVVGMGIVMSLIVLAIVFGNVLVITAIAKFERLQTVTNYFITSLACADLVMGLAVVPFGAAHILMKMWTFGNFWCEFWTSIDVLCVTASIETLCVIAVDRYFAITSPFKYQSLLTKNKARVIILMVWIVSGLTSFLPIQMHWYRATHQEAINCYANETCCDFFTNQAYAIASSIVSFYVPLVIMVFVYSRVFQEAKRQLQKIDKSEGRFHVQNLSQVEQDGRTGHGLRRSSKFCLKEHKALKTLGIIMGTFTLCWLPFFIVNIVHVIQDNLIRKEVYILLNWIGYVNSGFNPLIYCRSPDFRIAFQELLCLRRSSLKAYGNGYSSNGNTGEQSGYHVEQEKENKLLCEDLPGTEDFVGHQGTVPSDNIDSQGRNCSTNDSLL

Structure (SMILES): COc1ccc(C[C@@H](C)NC[C@H](O)c2cc(O)cc(O)c2)cc1.O=C(O)/C=C/C(=O)O [(R,R)-2, (R,R)-(−)-1-p-Methoxyphenyl-2-(β-3′,5′-dihydroxy-phenyl-β-oxy)ethylaminopropane Fumarate]
- AUC [1]: 96.1011 µg·min/mL
- Cl [1]: 15.40 mL/min
- K12 [1]: 0.1309 min⁻¹
- K21 [1]: 0.0203 min⁻¹
- T1/2 (K10) [1]: 13.23 min
- Vss [1]: 2189.02 mL
- Plasma concentration, Average ([1]; 5 min): 2120 ng/mL
- Plasma concentration, Average ([1]; 15 min): 580 ng/mL
- Plasma concentration, Average ([1]; 30 min): 410 ng/mL
- Plasma concentration, Average ([1]; 60 min): 260 ng/mL
- Plasma concentration, Average ([1]; 120 min): 170 ng/mL
- Plasma concentration, Average ([1]; 240 min): 120 ng/mL
- Plasma concentration, Average ([1]; 300 min): 70 ng/mL
- Individual plasma concentration ([1]; 300 min, individual rats, listed as (R,R)-methoxyfenoterol): 0.06 ug/ml and 0.07 ug/ml (3×) and 0.09 ug/ml
- Plasma concentration, Average ([1]; 360 min): 60 ng/mL
- V1 ([1]; central compartment): 294.01 mL
- K10 ([1]; elimination rate): 0.0524 min⁻¹
- V2 ([1]; tissue compartment): 1895.00 mL
- Alpha ([1]; two-compartment open model): 0.1982 min⁻¹
- Beta ([1]; two-compartment open model): 0.0054 min⁻¹
- A ([1]; two-compartment open model, zero time intercept alpha phase): 4.6437 µg/mL
- B ([1]; zero time intercept beta phase): 0.3900 µg/mL
- growth of 1321N1 xenograft [2]: inhibits astrocytoma growth in vivo
- passage through the blood brain barrier [3]: capable of passing through the blood brain barrier

Structure (SMILES): C=C[C@@]1(C)CC(=O)[C@]2(O)[C@@]3(C)[C@@H](O)CCC(C)(C)[C@@H]3[C@H](O)[C@H](OC(C)=O)[C@@]2(C)O1 [forskolin, reference compound]
- intracellular concentration of cAMP after treatment [4]: ~4 nmol/mg protein
- cell cycle arrest [5]: induced cell cycle arrest in G1 phase
